Test results: patent publication US6441038B1, “Treatment of fatigue, head injury and stroke” (Laxdale Limited, priority 1999, dated 2002)

Experiments:
[1] = tested on: post-stroke depression and fatigue; experiment: Case History No. 2: depression and fatigue after stroke; type: in vivo, human; conditions: person; antidepressant alone
[2] = tested on: brain lesions / LC function; conditions: animal studies, literature; cited from earlier work

Structure (SMILES) | effect on post-stroke depression and fatigue [1] | effect on LC function and recovery of motor function after brain lesions [2]
CN(C)CCCN1c2ccccc2CCc2ccccc21 [imipramine] | without much success | –
CNCCCN1c2ccccc2CCc2ccccc21 [desipramine] | – | able to enhance
CNCCC(Oc1ccc(C(F)(F)F)cc1)c1ccccc1 (stereo not shown) [fluoxetine] | without much success | –
CN(CCCN1c2ccccc2CCc2ccccc21)CC(=O)c1ccc(Cl)cc1 [lofepramine] | without much success | –
